From patent US9758529B2, “Fused dihydro-4H-pyrazolo[5,1-C][1,4]oxazinyl compounds and analogs for treating CNS disorders” (Sunovion Pharmaceuticals Inc., priority 2015, dated 2017)

These molecules were tested on mice (assay: Neuropharmacological Assay (SmartCube)). Conditions: i.p. 15 min before behavioral test; 3 doses, most efficacious dose(s) presented.
Format: in vivo
Text: Neurosci. […] As reported in Roberds, because psychiatric diseases generally result from disorders of cell-cell communication or circuitry, intact systems are useful in detecting improvement in disease-relevant endpoints. These endpoints are typically behavioral in nature, often requiring human observation and interpretation. To facilitate testing of multiple compounds for behavioral effects relevant to psychiatric disease, PsychoGenics, Inc. (Tarrytown, N.Y., “PGI”) developed SmartCube™, an automated system in which behaviors of compound-treated mice are captured by digital video and analyzed with computer algorithms. […] PGI Analytical Systems uses data from SmartCube™ to compare the behavioral signature of a test compound to a database of behavioral signatures obtained using a large set of diverse reference compounds. (The composition of the database as well as validation of the method is further described in Roberds). In this way, the neuropharmacological effects of a test compound can be predicted by similarity to major classes of compounds, such as antipsychotics, anxiolytics and antidepressants.
The SmartCube™ system produces an activity signature indicating the probability that the activity of the test compound at the administered dose matches a given class of neuropharmacological agents. (See, e.g., Roberds, FIGS. 2 and 3). The test compound is simultaneously compared against multiple classes of agents; thus, a separate probability is generated for each behavioral effect measured (e.g., anxiolytic activity, analgesic activity, etc.). In Table 2 and 2B, these probabilities are reported for each behavioral effect measured as follows:
where LOQ is the limit of quantification.
Provided compounds were dissolved in a mixture of Pharmasolve™ (N-methyl-2-pyrrolidone), polyethylene glycol and propylene glycol, and were injected i.p. 15 min. before the behavioral test. For each compound, injections were administered at 3 different doses. For each behavioral effect measured, results for the most efficacious dose(s) are presented.
For `Cl.c1ccc2c3n(nc2c1)CCO[C@@H]3[C@@H]1COCCN1` (racemic) [Compound 45, (+/−)—(S)-3-((R)-3,4-dihydro-1H-[1,4]oxazino[4,3-b]indazol-1-yl)morpholin-4-ium chloride], the “AD: ADHD (probability of class match)” value was “+ (LOQ≦ + <5%)”, the “AG: analgesic (probability of class match)” value (from here on “AG: analgesic”) was “+ (LOQ≦ + <5%)” and the “AX: anxiolytic (probability of class match)” value (from here on “AX: anxiolytic”) was “+ (LOQ≦ + <5%)”. For the same molecule, the “CE: cognitive enhancer (probability of class match)” value (shortened to “CE: cognitive enhancer”) was “+ (LOQ≦ + <5%)”, the “DP: anti-depressant (probability of class match)” value (“DP: anti-depressant” below) was “+ (LOQ≦ + <5%)” and the “HA: hallucinogen (probability of class match)” value (shortened to “HA: hallucinogen”) was “+ (LOQ≦ + <5%)”. For the same molecule, the “MS: mood stabilizer (probability of class match)” value (from here on “MS: mood stabilizer”) was “+ (LOQ≦ + <5%)”, the “PS: anti-psychotic (probability of class match)” value (“PS: anti-psychotic” below) was “+ (LOQ≦ + <5%)” and the “SD: sedative hypnotic (probability of class match)” value (from here on “SD: sedative hypnotic”) was “+ (LOQ≦ + <5%)”. For the same molecule, the “UN: uncharacterized CNS activity (probability of class match)” value (from here on “UN: uncharacterized CNS activity”) was “+ (LOQ≦ + <5%)” and the “XG: anxiogenic (probability of class match)” value (“XG: anxiogenic” for short) was “+ (LOQ≦ + <5%)”. In the case of `Cl.c1ccc2c3n(nc2c1)CCO[C@H]3[C@@H]1COCCN1` (racemic) [Compound 46, (+/−)—(S)-3-((S)-3,4-dihydro-1H-[1,4]oxazino[4,3-b]indazol-1-yl)morpholin-4-ium chloride], the “AD: ADHD (probability of class match)” value is reported as “+ (LOQ≦ + <5%)”, the “AG: analgesic” value is reported as “++ (5%≦ ++ <25%)” and the “AX: anxiolytic” value is reported as “++ (5%≦ ++ <25%)”. For the same molecule, the “CE: cognitive enhancer” value was “+ (LOQ≦ + <5%)”, the “DP: anti-depressant” value was “+ (LOQ≦ + <5%)” and the “HA: hallucinogen” value was “+ (LOQ≦ + <5%)”. For the same molecule, the “MS: mood stabilizer” value was “+ (LOQ≦ + <5%)”, the “PS: anti-psychotic” value was “++ (5%≦ ++ <25%)” and the “SD: sedative hypnotic” value was “++ (5%≦ ++ <25%)”. The “UN: uncharacterized CNS activity” value was “++ (5%≦ ++ <25%)” and the “XG: anxiogenic” value was “+ (LOQ≦ + <5%)”. With `CN1CCOC[C@H]1[C@H]1OCCn2nc3ccccc3c21` (racemic) [Compound 47, (+/−)-(3S,4R)-3-((R)-3,4-dihydro-1H-[1,4]oxazino[4,3-b]indazol-1-yl)-4-methylmorpholin-4-ium chloride] the “AD: ADHD (probability of class match)” value was “+ (LOQ≦ + <5%)”, the “AG: analgesic” value was “++ (5%≦ ++ <25%)” and the “AX: anxiolytic” value was “++ (5%≦ ++ <25%)”. The “CE: cognitive enhancer” value was “+ (LOQ≦ + <5%)”, the “DP: anti-depressant” value was “+ (LOQ≦ + <5%)” and the “HA: hallucinogen” value was “+ (LOQ≦ + <5%)”. The “MS: mood stabilizer” value was “+ (LOQ≦ + <5%)”, the “PS: anti-psychotic” value was “+ (LOQ≦ + <5%)” and the “SD: sedative hypnotic” value was “+ (LOQ≦ + <5%)”. For the same molecule, the “UN: uncharacterized CNS activity” value was “+ (LOQ≦ + <5%)” and the “XG: anxiogenic” value was “+ (LOQ≦ + <5%)”. In the case of `CN1CCOC[C@H]1[C@@H]1OCCn2nc3ccccc3c21` (racemic) [Compound 48, (+/−)-(3S,4R)-3-((S)-3,4-dihydro-1H-[1,4]oxazino[4,3-b]indazol-1-yl)-4-methylmorpholin-4-ium chloride], the “AD: ADHD (probability of class match)” value is reported as “+ (LOQ≦ + <5%)”, the “AG: analgesic” value is reported as “+ (LOQ≦ + <5%)” and the “AX: anxiolytic” value is reported as “+ (LOQ≦ + <5%)”. The “CE: cognitive enhancer” value was “+ (LOQ≦ + <5%)”, the “DP: anti-depressant” value was “+ (LOQ≦ + <5%)” and the “HA: hallucinogen” value was “+ (LOQ≦ + <5%)”. For the same molecule, the “MS: mood stabilizer” value was “+ (LOQ≦ + <5%)”, the “PS: anti-psychotic” value was “+ (LOQ≦ + <5%)” and the “SD: sedative hypnotic” value was “+ (LOQ≦ + <5%)”. The “UN: uncharacterized CNS activity” value was “+ (LOQ≦ + <5%)” and the “XG: anxiogenic” value was “+ (LOQ≦ + <5%)”. In the case of `C[C@@H](N)[C@H]1OCCn2nc3ccccc3c21.Cl` (relative stereo) [Compound 30, (+/−)-rel-(R)-1-((R)-3,4-dihydro-1H-[1,4]oxazino[4,3-b]indazol-1-yl) ethanaminium chloride], the “AD: ADHD (probability of class match)” value is reported as “++ (5%≦ ++ <25%)”, the “AG: analgesic” value is reported as “++ (5%≦ ++ <25%)” and the “AX: anxiolytic” value is reported as “+++ (25%≦ +++ <50%)”. The “CE: cognitive enhancer” value was “+ (LOQ≦ + <5%)”, the “DP: anti-depressant” value was “++ (5%≦ ++ <25%)” and the “HA: hallucinogen” value was “++ (5%≦ ++ <25%)”. For the same molecule, the “MS: mood stabilizer” value was “+ (LOQ≦ + <5%)”, the “PS: anti-psychotic” value was “+ (LOQ≦ + <5%)” and the “SD: sedative hypnotic” value was “+ (LOQ≦ + <5%)”. For the same molecule, the “UN: uncharacterized CNS activity” value was “+ (LOQ≦ + <5%)” and the “XG: anxiogenic” value was “+ (LOQ≦ + <5%)”. For `CN[C@H](C)[C@H]1OCCn2nc3ccccc3c21.Cl` (relative stereo) [Compound 31, (+/−)-rel-(R)-1-((R)-3,4-dihydro-1H-[1,4]oxazino[4,3-b]indazol-1-yl)-N-methylethanaminium chloride], the “AD: ADHD (probability of class match)” value was “+ (LOQ≦ + <5%)”, the “AG: analgesic” value was “++ (5%≦ ++ <25%)” and the “AX: anxiolytic” value was “+++ (25%≦ +++ <50%)”. The “CE: cognitive enhancer” value was “++ (5%≦ ++ <25%)”, the “DP: anti-depressant” value was “++ (5%≦ ++ <25%)” and the “HA: hallucinogen” value was “+ (LOQ≦ + <5%)”. The “MS: mood stabilizer” value was “+ (LOQ≦ + <5%)”, the “PS: anti-psychotic” value was “++ (5%≦ ++ <25%)” and the “SD: sedative hypnotic” value was “+ (LOQ≦ + <5%)”. The “UN: uncharacterized CNS activity” value was “+++ (25%≦ +++ <50%)” and the “XG: anxiogenic” value was “+ (LOQ≦ + <5%)”. `C[C@H]([C@H]1OCCn2nc3ccccc3c21)N(C)C.Cl` (relative stereo) [Compound 32, (+/−)-rel-(R)-1-((R)-3,4-dihydro-1H-[1,4]oxazino[4,3-b]indazol-1-yl)-N,N-dimethylethanaminium chloride] was tested, and the “AD: ADHD (probability of class match)” value was “+ (LOQ≦ + <5%)”, the “AG: analgesic” value was “+ (LOQ≦ + <5%)” and the “AX: anxiolytic” value was “++ (5%≦ ++ <25%)”. For the same molecule, the “CE: cognitive enhancer” value was “++ (5%≦ ++ <25%)”, the “DP: anti-depressant” value was “++ (5%≦ ++ <25%)” and the “HA: hallucinogen” value was “+ (LOQ≦ + <5%)”. The “MS: mood stabilizer” value was “+ (LOQ≦ + <5%)”, the “PS: anti-psychotic” value was “+++ (25%≦ +++ <50%)” and the “SD: sedative hypnotic” value was “+ (LOQ≦ + <5%)”. For the same molecule, the “UN: uncharacterized CNS activity” value was “++ (5%≦ ++ <25%)” and the “XG: anxiogenic” value was “+ (LOQ≦ + <5%)”. For `C[C@H](N)[C@H]1OCCn2nc3ccccc3c21` (relative stereo) [Compound 33, (+/−)-rel-(R)-1-((S)-3,4-dihydro-1H-[1,4]oxazino[4,3-b]indazol-1-yl) ethanaminium chloride], the “AD: ADHD (probability of class match)” value was “++++ (50%≦ ++++)”, the “AG: analgesic” value was “++ (5%≦ ++ <25%)” and the “AX: anxiolytic” value was “++ (5%≦ ++ <25%)”. The “CE: cognitive enhancer” value was “+ (LOQ≦ + <5%)”, the “DP: anti-depressant” value was “++ (5%≦ ++ <25%)” and the “HA: hallucinogen” value was “++ (5%≦ ++ <25%)”. The “MS: mood stabilizer” value was “+ (LOQ≦ + <5%)”, the “PS: anti-psychotic” value was “+ (LOQ≦ + <5%)” and the “SD: sedative hypnotic” value was “+ (LOQ≦ + <5%)”. For the same molecule, the “UN: uncharacterized CNS activity” value was “+++ (25%≦ +++ <50%)” and the “XG: anxiogenic” value was “+ (LOQ≦ + <5%)”. With `CN[C@@H](C)[C@H]1OCCn2nc3ccccc3c21` (relative stereo) [Compound 34, (+/−)-rel-(R)-1-((S)-3,4-dihydro-1H-[1,4]oxazino[4,3-b]indazol-1-yl)-N-methylethanaminium chloride] the “AD: ADHD (probability of class match)” value was “+ (LOQ≦ + <5%)”, the “AG: analgesic” value was “+ (LOQ≦ + <5%)” and the “AX: anxiolytic” value was “++ (5%≦ ++ <25%)”. The “CE: cognitive enhancer” value was “+ (LOQ≦ + <5%)”, the “DP: anti-depressant” value was “+ (LOQ≦ + <5%)” and the “HA: hallucinogen” value was “+ (LOQ≦ + <5%)”. The “MS: mood stabilizer” value was “+ (LOQ≦ + <5%)”, the “PS: anti-psychotic” value was “+ (LOQ≦ + <5%)” and the “SD: sedative hypnotic” value was “+ (LOQ≦ + <5%)”. The “UN: uncharacterized CNS activity” value was “+ (LOQ≦ + <5%)” and the “XG: anxiogenic” value was “+ (LOQ≦ + <5%)”. For `CNC[C@@H]1OCCn2nc3ccccc3c21` [Compound 1, (S)-(3,4-dihydro-1H-[1,4]oxazino[4,3-b]indazol-1-yl)-N-methylmethanaminium chloride], the “AD: ADHD (probability of class match)” value was “+ (LOQ≦ + <5%)”, the “AG: analgesic” value was “+ (LOQ≦ + <5%)” and the “AX: anxiolytic” value was “++ (5%≦ ++ <25%)”. The “CE: cognitive enhancer” value was “+ (LOQ≦ + <5%)”, the “DP: anti-depressant” value was “+ (LOQ≦ + <5%)” and the “HA: hallucinogen” value was “+ (LOQ≦ + <5%)”. The “MS: mood stabilizer” value was “+ (LOQ≦ + <5%)”, the “PS: anti-psychotic” value was “+ (LOQ≦ + <5%)” and the “SD: sedative hypnotic” value was “+ (LOQ≦ + <5%)”. The “UN: uncharacterized CNS activity” value was “+ (LOQ≦ + <5%)” and the “XG: anxiogenic” value was “+ (LOQ≦ + <5%)”.
